This is an account of results in patent US7655670B2 (Janssen Pharmaceutica N.V., priority 2005, dated 2010).

In experiment [1] the target is human nociceptin receptor (ORL-1) (Homo sapiens, UniProt P41146). Nature of the experiment: nociceptin receptor (ORL-1) binding assay, 125I-Tyr14-nociceptin displacement.
The target of experiment [2] is T1, ORL-1 receptor (Homo sapiens, UniProt P41146).
T1 construct: expressed in transfected cells; host or cells: HEK-293 over-expressing ORL-1 and Gqi5
The experiment is described as follows: ORL-1 functional assay (calcium flux, FLIPR). Type of experiment: cell-based. On the set-up: key to Inhibitor: a notation of “no” indicates that the compound did not act as an inhibitor; a notation of “yes” indicates that the compound acted as an inhibitor; a notation of “undetermined” indicates that the data did not clearly show whether or not the compound acted as an antagonist. Conditions: for Inhibitor: HEK-293 cells over-expressing ORL-1 receptor and Gqi5 G protein, calcium flux; for % Inhibition (100 nM Nociceptin): inhibition of calcium signal from 100 nM nociceptin, HEK-293 cells with ORL-1 and Gqi5. Here is the method: To assay the function of a test compound, a HEK-293 cell line that over-expresses the ORL-1 receptor and the Gqi5 G protein (Molecular Devices) were employed. By using a calcium flux assay, agonism and antagonism through the ORL-1 receptor were detectable.
The HEK-293 cells were plated two days prior to assay. For assay, cells in 50 μl of medium were incubated with 50 μl of dye (Molecular Devices) for 1 hour at 37° C. 100 μl of test compound diluted in Hank's Buffered Salt Solution (HBSS) at 2-fold the indicated final concentration was added and time points taken every 1 second for 1 minute and every 3 seconds for an additional 1 minute using FLIPR384 (Molecular Devices). 50 μl of nociceptin (Neosystems, SA) at 5-fold the indicated final concentration was then added and additional time points were recorded every 1 second for 1 minute and every 3 seconds for an additional 1 minute.
The resulting data were processed using Microsoft Excel 6.0 and EC50 values were determined using GraphPad Prism 3.0. For agonists, the EC50 was determined from the initial calcium signal obtained after addition of the test compound. For compounds that behaved as antagonists, the percent inhibition or IC50 of the signal resulting from the subsequent addition of the nociceptin peptide was calculated.
(In general: Calcium assays in cells follow changes in intracellular calcium, usually with a dye or a luminescent sensor.)

The target of experiment [3] is Mu (μ) opioid receptor (Homo sapiens, UniProt P35372). Nature of the experiment: Filtration binding assay, mu opioid receptor (Damgo-H3 ligand).
The target of experiment [4] is Delta (δ) opioid receptor (Homo sapiens, UniProt P41143). Nature of the experiment: Filtration binding assay, delta opioid receptor (DPDPE-H3 ligand).
For experiment [5], the target named is Kappa (κ) opioid receptor (Homo sapiens, UniProt P41145). Nature of the experiment: Filtration binding assay, kappa opioid receptor (U69593-H3 ligand).
Where [6] appears, read: 1 D4 cell line membrane, Damgo-H3 ligand, calculated mean where tested more than once, read-out: Mu (μ) IC50.
[7] abbreviates: 2D4 cell line membrane, DPDPE-H3 ligand, calculated mean where tested more than once, read-out: Delta (δ) IC50.
Where [8] appears, read: 2C2 cell line membrane, U69593-H3 ligand, calculated mean where tested more than once, read-out: Kappa (κ) IC50.

Read-outs that look alike come from different tables or passages of the source.

Sequence of Mu (μ) opioid receptor (P35372 whole entry): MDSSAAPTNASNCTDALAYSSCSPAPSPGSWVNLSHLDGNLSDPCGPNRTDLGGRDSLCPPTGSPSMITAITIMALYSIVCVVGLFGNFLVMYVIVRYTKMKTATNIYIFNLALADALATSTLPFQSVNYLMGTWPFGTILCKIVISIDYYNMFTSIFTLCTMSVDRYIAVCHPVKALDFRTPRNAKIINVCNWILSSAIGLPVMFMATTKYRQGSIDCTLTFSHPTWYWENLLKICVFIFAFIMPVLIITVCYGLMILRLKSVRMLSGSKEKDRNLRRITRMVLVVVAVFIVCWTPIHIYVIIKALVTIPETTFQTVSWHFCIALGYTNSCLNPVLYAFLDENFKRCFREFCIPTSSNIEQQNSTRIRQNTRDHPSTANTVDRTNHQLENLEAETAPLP
Sequence of Delta (δ) opioid receptor (P41143 whole entry): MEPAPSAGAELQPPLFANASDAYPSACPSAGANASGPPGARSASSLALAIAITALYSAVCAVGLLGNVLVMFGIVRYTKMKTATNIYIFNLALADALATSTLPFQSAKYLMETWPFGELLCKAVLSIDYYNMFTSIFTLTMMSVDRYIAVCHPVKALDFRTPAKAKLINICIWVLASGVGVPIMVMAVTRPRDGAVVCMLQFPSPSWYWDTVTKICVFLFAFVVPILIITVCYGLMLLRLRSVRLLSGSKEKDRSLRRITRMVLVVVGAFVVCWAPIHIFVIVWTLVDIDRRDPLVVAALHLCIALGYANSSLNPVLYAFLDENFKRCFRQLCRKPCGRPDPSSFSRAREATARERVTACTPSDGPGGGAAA
T1 sequence (P41146 whole entry): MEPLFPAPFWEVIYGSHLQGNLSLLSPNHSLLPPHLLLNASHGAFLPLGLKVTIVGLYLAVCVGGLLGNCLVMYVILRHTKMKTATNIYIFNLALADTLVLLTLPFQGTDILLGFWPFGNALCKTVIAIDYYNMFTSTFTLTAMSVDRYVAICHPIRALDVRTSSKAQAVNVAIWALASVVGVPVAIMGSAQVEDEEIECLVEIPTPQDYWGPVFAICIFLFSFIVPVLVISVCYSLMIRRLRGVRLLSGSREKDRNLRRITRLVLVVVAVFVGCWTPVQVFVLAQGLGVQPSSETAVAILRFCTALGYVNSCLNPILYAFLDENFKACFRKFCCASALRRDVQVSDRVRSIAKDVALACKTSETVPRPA
Sequence of human nociceptin receptor (ORL-1) (P41146 whole entry): as above
Sequence of Kappa (κ) opioid receptor (P41145 whole entry): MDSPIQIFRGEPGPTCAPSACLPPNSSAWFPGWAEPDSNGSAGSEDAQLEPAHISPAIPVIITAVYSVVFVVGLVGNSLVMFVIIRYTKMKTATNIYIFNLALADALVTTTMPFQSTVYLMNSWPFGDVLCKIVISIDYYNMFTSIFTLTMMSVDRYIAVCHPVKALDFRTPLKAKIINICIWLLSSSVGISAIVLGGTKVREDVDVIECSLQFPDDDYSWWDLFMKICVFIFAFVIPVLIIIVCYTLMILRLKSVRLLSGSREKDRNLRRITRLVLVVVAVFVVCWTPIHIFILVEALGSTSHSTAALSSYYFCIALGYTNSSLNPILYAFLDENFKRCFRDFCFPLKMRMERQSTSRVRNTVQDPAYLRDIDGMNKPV

In experiment [1], `COC(=O)CN1C(=O)C2(CCN(CC3CCCCCC3)CC2)c2ccccc21` [Compound 1] registered an IC50 of 0.51 µM. For the same molecule, in experiment [2], the Inhibitor entry was “no”.

For `O=C1N(CC2CCCCC2)c2ccccc2C12CCN(C1Cc3cccc4cccc1c34)CC2` (stereo not shown) [Compound 4], the IC50 in experiment [3] (setting [6]) and in experiment [4] (setting [7]) was greater than 10 µM each time.

In the case of `COc1ccc2c(c1)N(CC1CC1)C(=O)C21CCN(CC2CCCCCCC2)CC1` [Compound 5, 1-(cyclopropyl-methyl)-5-(cyclooctyl-methyl)-10-methoxy-spiro[indoline-3,4′-piperidin]-2-one], in experiment [3], the IC50 was greater than 10 µM.

For `CC(C)c1ccc2c(c1)C1(CCN(CC3CCCCCCC3)CC1)C(=O)N2C` [Compound 7, 1-methyl-5-(cyclooctyl-methyl)-9-isopropyl-spiro[indoline-3,4′-piperidin]-2-one], the IC50 came to 0.097 µM in experiment [5] (read-out: Kappa (κ) IC50), 7.4 µM in experiment [1] and 0.98 µM in experiment [3] (read-out: Mu (μ) IC50).

For the molecule `CN1C(=O)C2(CCN(CC3CCCCCCC3)CC2)c2cc(C(F)(F)F)ccc21` [Compound 8, 1-methyl-5-(cyclooctyl-methyl)-9-trifluoromethyl-spiro[indoline-3,4′-piperidin]-2-one], the values for the IC50 in experiment [1], in experiment [3] (setting [6]) and in experiment [4] were 0.6 µM, 5.31 µM and greater than 10 µM, respectively.

Regarding `CN1C(=O)C2(CCN(CC3CCCCCCC3)CC2)c2cc(F)ccc21` [Compound 9, 1-methyl-5-(cyclooctyl-methyl)-9-fluoro-spiro[indoline-3,4′-piperidin]-2-one], the IC50 in experiment [5] (setting [8]) is 0.25 µM; in experiment [1], 0.023 µM; in experiment [3] (setting [6]), 1.01 µM; in experiment [4], greater than 10 µM. Besides, in experiment [2], the Inhibitor result was “undetermined”. Besides, the “% Inhibition (100 nM Nociceptin)” value in experiment [2] is given as 41 ± 26%.

In experiment [1], `COC(=O)CN1C(=O)C2(CCN(Cc3ccc(C(F)(F)F)cc3)CC2)c2ccccc21` [Compound 11] gave an IC50 of 0.88 µM.

Regarding `COC(=O)CN1C(=O)C2(CCN(Cc3cccc(C(F)(F)F)c3)CC2)c2ccccc21` [Compound 12], in experiment [1], the IC50 turned out to be 0.14 µM.

In experiment [1], `CN1C(=O)C2(CCN(C(=O)OC(C)(C)C)CC2)c2cc(C(F)(F)F)ccc21` [Compound 14, 1-methyl-5-tert-butoxycarbonyl-9-trifluoromethyl-spiro[indoline-3,4′-piperidin]-2-one] had an IC50 greater than 10 µM.

As to `COC(=O)CN1C(=O)C2(CCN(C3CCC4CCCCC4C3)CC2)c2ccccc21` (stereo not shown) [Compound 15], the IC50 in experiment [1] amounted to 0.9 µM.

With `CC(=O)N[C@@H](CSCC(O)CN1C(=O)C2(CCN(CC3CCCCCCC3)CC2)c2ccccc21)C(=O)O` (stereo partly shown) [Compound 16], the IC50 was 0.36 µM in experiment [5] (setting [8]), 0.36 µM in experiment [3] (setting [6]) and greater than 10 µM in experiment [4] (setting [7]).

`CCCN1C(=O)C2(CCN(CC3CCCCCCC3)CC2)c2cc(C(C)C)ccc21` [Compound 17]: the IC50 in experiment [5] (setting [8]) is 4 µM; in experiment [3] (setting [6]) it was greater than 10 µM; in experiment [4] (setting [7]) it was 5.7 µM.

Take `O=C1Nc2ccccc2C12CCN(CC1CCCCCCC1)CC2` [Compound 18]: the IC50 in experiment [5] (setting [8]) is 0.43 µM; in experiment [1] it was 0.38 µM; in experiment [3] (setting [6]), 1.11 µM. Also, the Inhibitor entry in experiment [2] is given as “yes”. Moreover, the “% Inhibition (100 nM Nociceptin)” value in experiment [2] came to 45 ± 9%.

For `CN1C(=O)C2(CCN(CC3CCCCCCC3)CC2)c2ccc(O)cc21` [Compound 19], the IC50 was 0.12 µM in experiment [5] (setting [8]), 2.68 µM in experiment [1], greater than 10 µM in experiment [3] (setting [6]) and 0.3 µM in experiment [4] (setting [7]).

Turning to `O=C1N(CCO)c2ccccc2C12CCN(CC1CCCCCCC1)CC2` [Compound 20], the IC50 in experiment [1] was 0.29 µM; in experiment [3] (setting [6]) it was 1.69 µM.

Molecule `COC(=O)CN1C(=O)C2(CCN(CC3CC3)CC2)c2ccccc21` [Compound 23] returned an IC50 in experiment [1] of 3.6 µM.

In the case of `COC(=O)CN1C(=O)C2(CCN(CC3CCCCC3)CC2)c2ccccc21` [Compound 24], the IC50 in experiment [1] worked out at 0.8 µM. In experiment [2], the Inhibitor result was “yes” and the “% Inhibition (100 nM Nociceptin)” value was 32 ± 2%.

In experiment [1], `CCCCCCN1CCC2(CC1)C(=O)N(CC(=O)OC)c1ccccc12` [Compound 26] came in with an IC50 of 0.82 µM.

As for `COC(=O)CN1C(=O)C2(CCN(CC3CCCCCCCCCCC3)CC2)c2ccccc21` [Compound 27], the IC50 in experiment [1] is 1.12 µM.

In experiment [1], `COC(=O)CN1C(=O)C2(CCN(CC3CCC(C(C)(C)C)CC3)CC2)c2ccccc21` (stereo not shown) [Compound 29] registered an IC50 of 0.1 µM.

On to `COC(=O)CN1C(=O)C2(CCN(C3Cc4cccc5cccc3c45)CC2)c2ccccc21` (stereo not shown) [Compound 30], for which the IC50 in experiment [5] (setting [8]) was 4.41 µM; in experiment [3] (setting [6]), greater than 10 µM; in experiment [4] (setting [7]) it was greater than 10 µM.

Take `COC(=O)CN1C(=O)C2(CCN(Cc3ccc4ccccc4c3)CC2)c2ccccc21` [Compound 32]: the IC50 in experiment [1] was determined as 0.25 µM.

For `COc1ccc2c(c1)N(C)C(=O)C21CCN(CC2CCCCCCC2)CC1` [Compound 35, 1-methyl-5-(cyclooctyl-methyl)-10-methoxy-spiro[indoline-3,4′-piperidin]-2-one], the IC50 in experiment [5] (setting [8]) is 1.22 µM; in experiment [1], 2.4 µM; in experiment [3] (setting [6]), 1.61 µM.

`COC(=O)CN1C(=O)C2(CCN(Cc3ccc(Cl)cc3)CC2)c2ccccc21` [Compound 39] displayed an IC50 in experiment [1] of 0.71 µM.

Take `O=C(O)CN1C(=O)C2(CCN(CC3CCCCCCC3)CC2)c2ccccc21` [Compound 41]: the IC50 in experiment [5], in experiment [3] and in experiment [4] was greater than 10 µM in each case.

Consider `COC(=O)CN1C(=O)C2(CCN(CC3CCCCCCC3)CC2)c2ccccc21` [Compound 42], for which the IC50 in experiment [5] (setting [8]) was 0.64 µM; in experiment [1] it was 0.1 µM; in experiment [3] (setting [6]), 3.55 µM.

Take `COC(=O)CN1C(=O)C2(CCN(Cc3cccc4ccccc34)CC2)c2ccccc21` [Compound 43]: the IC50 in experiment [1] is 0.47 µM.

As for `O=C1N(Cc2ccccc2)c2ccccc2C12CCN(CC1CCCCCCC1)CC2` [Compound 44], the IC50 is 1.1 µM in experiment [5] (setting [8]), 0.12 µM in experiment [1] and 0.96 µM in experiment [3] (setting [6]).

Consider `CN1C(=O)C2(CCN(CC3CCCCCCC3)CC2)c2ccccc21` [Compound 45], for which the IC50 in experiment [5] (setting [8]) is 0.93 µM; in experiment [1] it was 0.032 µM; in experiment [3] (setting [6]), 1.3 µM. Also, in experiment [2], the Inhibitor result is given as “no”.

For `CC(=O)OCCN1C(=O)C2(CCN(CC3CCCCCCC3)CC2)c2ccccc21` [Compound 46], the results for the IC50 in experiment [5] (setting [8]), in experiment [1] and in experiment [3] (setting [6]) were 2.64 µM, 0.18 µM and 1.41 µM, respectively. Besides, in experiment [2], the Inhibitor entry was “no”.

For the molecule `CCN1C(=O)C2(CCN(CC3CCCCCCC3)CC2)c2ccc(OC)cc21` [Compound 55, 1-ethyl-5-(cyclooctyl-methyl)-10-methoxy-spiro[indoline-3,4′-piperidin]-2-one], the IC50 in experiment [1] was 2.75 µM; in experiment [3] (setting [6]), 1.46 µM.

With `Cc1ccc2c(c1)C1(CCN(CC3CCCCCCC3)CC1)C(=O)N2C` [Compound 57, 1-methyl-5-(cyclooctyl-methyl)-9-methyl-spiro[indoline-3,4′-piperidin]-2-one], the IC50 is 0.54 µM in experiment [5] (setting [8]), 0.45 µM in experiment [1], 4.28 µM in experiment [3] (setting [6]) and greater than 10 µM in experiment [4] (setting [7]). Moreover, the Inhibitor result in experiment [2] was “no”.

For the molecule `Cc1cccc2c1C1(CCN(CC3CCCCCCC3)CC1)C(=O)N2C` [Compound 59, 1-methyl-5-(cyclooctyl-methyl)-8-methyl-spiro[indoline-3,4′-piperidin]-2-one], the IC50 in experiment [5] (setting [8]) was 0.56 µM; in experiment [1], 0.037 µM; in experiment [3] (setting [6]), 0.48 µM. For the same molecule, the Inhibitor entry in experiment [2] was “yes”. The “% Inhibition (100 nM Nociceptin)” value in experiment [2] is reported as 81 ± 6%.

As to `O=C1N(CC2CO2)c2ccccc2C12CCN(CC1CCCCCCC1)CC2` (stereo not shown) [Compound 60], the IC50 in experiment [5] (setting [8]) was 0.48 µM; in experiment [1], 0.083 µM; in experiment [3] (setting [6]), 0.84 µM. In experiment [2], the Inhibitor entry is “no”. For the same molecule, the “% Inhibition (100 nM Nociceptin)” value in experiment [2] is 17 ± 3%.

As for `O=C1N(CC(O)CNCCN2CCOCC2)c2ccccc2C12CCN(CC1CCCCCCC1)CC2` (stereo not shown) [Compound 61], the IC50 in experiment [5] (read-out: Kappa (κ) IC50) amounted to 0.1 µM; in experiment [1], 0.12 µM; in experiment [3] (read-out: Mu (μ) IC50) it was 0.5 µM.

As to `CCN(Cc1ccc(C)cc1)CC(O)CN1C(=O)C2(CCN(CC3CCCCCCC3)CC2)c2ccccc21` (stereo not shown) [Compound 62], the IC50 in experiment [5] (setting [8]) was 0.22 µM; in experiment [1] it was 0.32 µM; in experiment [3] (setting [6]), 0.62 µM.

On to `CCN1CC2(CCN(CC3CCCCCCC3)CC2)c2ccc(OC)cc21` [Compound 63], for which the IC50 in experiment [5] (setting [8]), in experiment [3] (setting [6]) and in experiment [4] (setting [7]) was greater than 10 µM throughout.
